Laboratory results: patent US20220395497A1, “Cancer Treatment Using Camptothecin Derivatives” (priority 2019, published 2022)
Values joined by “and” are separate entries in the source; they are usually repeats but may differ in a detail not shown here. Equal entries are not always repeated. “Also recorded” adds a separate entry of the source.

Test system: adults with recurrence of glioblastoma multiforme (GBM)
Assay: Phase 2 open-label study of IV AR-67 (7.5 mg/m2 once daily for 5 days, 21-day cycle) in recurrent GBM: adverse events (Safety Population, NCI-CTCAE). Cohort 1 = not received or not recently failed (>90 days) bevacizumab; Cohort 2 = recently (<90 days) failed bevacizumab
Format: in vivo, human
Details: for 1 related SAE, patients (%) / related SAE, No of Events / related TEAE, No of Events / ≥1 related TEAE, patients (%): possibly, probably, or definitely related
Procedure: This solution was reconstituted in dextrose 5% in water to a final concentration between 0.06-0.6 mg/mL Drug (7.5 mg/m2) was to be given until the onset of toxicity requiring discontinuation or tumor progression. Tumor response was assessed=14d after every second cycle and before every third cycle using MRI.

[1] = reGBM, single agent, infusion, N = 45

CC[C@@]1(O)C(=O)OCc2c1cc1n(c2=O)Cc2c-1nc1ccc(O)cc1c2[Si](C)(C)C(C)(C)C [AR-67, (205)-7-tert-butyldimethysilyl-10-hydroxycamptothecin]
TEAE NCI-CTCAE Grade 1, No of Events (Cohort 1, N = 30): 178 | TEAE NCI-CTCAE Grade 1, patients (%) (Cohort 1, N = 30): (70.0) % | TEAE NCI-CTCAE Grade 2, No of Events (Cohort 1, N = 30): 94 | TEAE NCI-CTCAE Grade 2, patients (%) (Cohort 1, N = 30): (60.0) % | TEAE NCI-CTCAE Grade 3, No of Events (Cohort 1, N = 30): 63 | TEAE NCI-CTCAE Grade 3, patients (%) (Cohort 1, N = 30): (63.3) % | TEAE NCI-CTCAE Grade 4, No of Events (Cohort 1, N = 30): 5 | TEAE NCI-CTCAE Grade 4, patients (%) (Cohort 1, N = 30): (16.7) % | TEAE NCI-CTCAE Grade 5, No of Events (Cohort 1, N = 30): 0 | TEAE Nausea, patients (%) (Cohort 1, N = 30): 13.3% | TEAE Nervous System Disorders, patients (%) (Cohort 1, N = 30): (50.0) % | TEAE Neutropenia, patients (%) (Cohort 1, N = 30): 16.7% | TEAE Neutrophil count decreased, patients (%) (Cohort 1, N = 30): 16.7% | TEAE Not Related to AR-67, No of Events (Cohort 1, N = 30): 83 | TEAE Not Related to AR-67, patients (%) (Cohort 1, N = 30): (66.7) % | TEAE Platelet count decreased, patients (%) (Cohort 1, N = 30): 13.3% | TEAE Possibly Related to AR-67, No of Events (Cohort 1, N = 30): 146 | TEAE Possibly Related to AR-67, patients (%) (Cohort 1, N = 30): (66.7) % | TEAE Probably Related to AR-67, No of Events (Cohort 1, N = 30): 76 | TEAE Probably Related to AR-67, patients (%) (Cohort 1, N = 30): (40.0) % | TEAE Psychiatric Disorders, patients (%) (Cohort 1, N = 30): 30.0% | TEAE Respiratory, Thoracic, and Mediastinal Disorders, patients (%) (Cohort 1, N = 30): (30.0) % | TEAE Thrombocytopenia, patients (%) (Cohort 1, N = 30): 20% | TEAE Vascular Disorders, patients (%) (Cohort 1, N = 30): (23.3) % | TEAE Vision blurred, patients (%) (Cohort 1, N = 30): (10.0) % | TEAE Vomiting, patients (%) (Cohort 1, N = 30): 10.0% | TEAE White blood cell count decreased, patients (%) (Cohort 1, N = 30): 16.7% | TEAE leading to death, No of Events (Cohort 1, N = 30): 16 | TEAE leading to early discontinuation, No of Events (Cohort 1, N = 30): 5 | TEAE, No of Events (Cohort 1, N = 30): 346 | severe WBC count decreased, patients (%) (Cohort 1, N = 30): 10.0% | severe neutropenia, patients (%) (Cohort 1, N = 30): 16.7% | severe neutrophil count decreased, patients (%) (Cohort 1, N = 30): 10.0% | ≥1 TEAE leading to death, patients (%) (Cohort 1, N = 30): (3.3) % | 1 related SAE, patients (%) (Cohort 1, N = 30): (20.0) % | related SAE, No of Events (Cohort 1, N = 30): 10 | related TEAE, No of Events (Cohort 1, N = 30): 258 | ≥1 related TEAE, patients (%) (Cohort 1, N = 30): (83.3) % | SAE blood and lymphatic system disorders, events (Cohort 2): 3 | SAE blood and lymphatic system disorders, patients (Cohort 2): 2 | SAE headache, patients (Cohort 2): 2 | SAE nervous system disorders, events (Cohort 2): 6 | SAE nervous system disorders, patients (Cohort 2): 6 | Death, No of Events (Cohort 2, N = 13): 2 | Death, patients (%) (Cohort 2, N = 13): (15.4) % | SAE, No of Events (Cohort 2, N = 13): 14 | TEAE Blood and Lymphatic System Disorders, events (Cohort 2, N = 13): 3 | TEAE Blood and Lymphatic System Disorders, patients (%) (Cohort 2, N = 13): 15.4% and 15% | TEAE Constipation, patients (%) (Cohort 2, N = 13): 15.4% and 15% | TEAE Convulsion, patients (%) (Cohort 2, N = 13): 7.7% | TEAE Definitely Related to AR-67, No of Events (Cohort 2, N = 13): 8 | TEAE Definitely Related to AR-67, patients (%) (Cohort 2, N = 13): (38.5) % | TEAE Diarrhoea, patients (%) (Cohort 2, N = 13): 15.4% and 15% | TEAE Eye Disorders, patients (%) (Cohort 2, N = 13): 7.7% | TEAE Gastrointestinal Disorders, patients (%) (Cohort 2, N = 13): 53.8% | TEAE General Disorders and Administration Site Conditions, patients (%) (Cohort 2, N = 13): 38.5% | TEAE Intensity Life Threatening, No of Events (Cohort 2, N = 13): 1 | TEAE Intensity Life Threatening, patients (%) (Cohort 2, N = 13): (7.7) % | TEAE Intensity Mild, No of Events (Cohort 2, N = 13): 20 | TEAE Intensity Mild, patients (%) (Cohort 2, N = 13): (53.8) % | TEAE Intensity Moderate, No of Events (Cohort 2, N = 13): 18 | TEAE Intensity Moderate, patients (%) (Cohort 2, N = 13): (30.8) % | TEAE Intensity Severe, No of Events (Cohort 2, N = 13): 14 | TEAE Intensity Severe, patients (%) (Cohort 2, N = 13): (61.5) % | TEAE Investigations SOC, events (Cohort 2, N = 13): 2 | TEAE Investigations, patients (%) (Cohort 2, N = 13): 7.7% | TEAE Metabolism and Nutrition Disorders, patients (%) (Cohort 2, N = 13): (15.4) % | TEAE Musculoskeletal and Connective Tissue Disorders, patients (%) (Cohort 2, N = 13): 23.1% | TEAE NCI-CTCAE Grade 1, No of Events (Cohort 2, N = 13): 17 | TEAE NCI-CTCAE Grade 1, patients (%) (Cohort 2, N = 13): (53.8) % | TEAE NCI-CTCAE Grade 2, No of Events (Cohort 2, N = 13): 16 | TEAE NCI-CTCAE Grade 2, patients (%) (Cohort 2, N = 13): (30.8) % | TEAE NCI-CTCAE Grade 3, No of Events (Cohort 2, N = 13): 16 | TEAE NCI-CTCAE Grade 3, patients (%) (Cohort 2, N = 13): (69.2) % | TEAE NCI-CTCAE Grade 4, No of Events (Cohort 2, N = 13): 3 | TEAE NCI-CTCAE Grade 4, patients (%) (Cohort 2, N = 13): (23.1) % | TEAE NCI-CTCAE Grade 5, No of Events (Cohort 2, N = 13): 0 | TEAE Nausea, patients (%) (Cohort 2, N = 13): 30.8% and 31% | TEAE Nervous System Disorders, patients (%) (Cohort 2, N = 13): 46.2% | TEAE Neutropenia, patients (%) (Cohort 2, N = 13): 7.7% | TEAE Not Related to AR-67, No of Events (Cohort 2, N = 13): 25 | TEAE Not Related to AR-67, patients (%) (Cohort 2, N = 13): (53.8) % | TEAE Possibly Related to AR-67, No of Events (Cohort 2, N = 13): 19 | TEAE Possibly Related to AR-67, patients (%) (Cohort 2, N = 13): (53.8) % | TEAE Probably Related to AR-67, No of Events (Cohort 2, N = 13): 1 | TEAE Probably Related to AR-67, patients (%) (Cohort 2, N = 13): (7.7) % | TEAE Psychiatric Disorders, patients (%) (Cohort 2, N = 13): 23.1% | TEAE Respiratory, Thoracic, and Mediastinal Disorders, patients (%) (Cohort 2, N = 13): (15.4) % | TEAE Thrombocytopenia, patients (%) (Cohort 2, N = 13): 7.7% | TEAE Vision blurred, patients (%) (Cohort 2, N = 13): 7.7% | TEAE Vomiting, patients (%) (Cohort 2, N = 13): 7.7% | TEAE leading to death, No of Events (Cohort 2, N = 13): 1 | TEAE leading to early discontinuation, No of Events (Cohort 2, N = 13): 5 | TEAE, No of Events (Cohort 2, N = 13): 55 | ≥1 TEAE leading to death, patients (%) (Cohort 2, N = 13): (7.7) % | 1 related SAE, patients (%) (Cohort 2, N = 13): (38.5) % | related SAE, No of Events (Cohort 2, N = 13): 9 | related TEAE, No of Events (Cohort 2, N = 13): 28 | ≥1 related TEAE, patients (%) (Cohort 2, N = 13): (76.9) % | patients with AEs documented as mild, moderate, and severe intensity (span over the three) (Safety Population): 58-69% | toxicities relative to comparator drug (comparison with published trials of the comparator): reduced toxicities relative to the toxicities induced by Etirinotecan treatment; also recorded: reduced toxicities relative to the toxicities induced by Karenitecin treatment; also recorded: reduced toxicities relative to the toxicities induced by Gimatecan treatment; also recorded: reduced toxicities relative to the toxicities induced by Lomustine treatment; also recorded: does not display the severe dose limiting toxicities typical of the marketed standard, Irinotecan; also recorded: dramatically reduced toxicities relative to the toxicities induced by Irinotecan treatment | tolerability (in vivo): generally well tolerated | TEAEs leading to discontinuation from the nervous system disorders SOC, events (of the 10 TEAEs leading to discontinuation): Six | Diarrhoea Grades 3-5 (reGBM, single agent, N = 45): 0% | Nausea Grades 3-5 (reGBM, single agent, N = 45): 2% | Thrombocytopenia Grades 3-4 (reGBM, single agent, N = 45): 4% | Vomiting Grades 3-5 (reGBM, single agent, N = 45): 0% | Neutropenia Grades 3-4 (reGBM, single agent, N = 45, All grade 3): 13% | Diarrhoea Grade 4 [1]: 0% | Nausea Grades 3,4 [1]: 2% | Neutropenia Grade 4 [1]: 0% | Vomiting Grades 3,4 [1]: 0%
